In patent publication US6362166B1, “Antipicornaviral compounds and methods for their use and preparation” (Agouron Pharmaceuticals, Inc., priority 1996, dated 2002):
Where two headings read alike, the source gives them in different places.

Columns and labels:
HRV-14 = assay: Antirhinoviral HI-HeLa Cell Culture Assay (Cell Protection Assay, XTT dye reduction); format: cell-based, human rhinovirus (HRV) serotype-14; settings: HI-HeLa cells infected with HRV-14, m.o.i. 0.13; two days; XTT; read-out: EC50
Procedure: In the Cell Protection Assay, the ability of compounds to protect cells against HRV infection was measured by the XTT dye reduction method. This method is described in Weislow, O. S., R. Kiser, D. L. Fine, J. Bader, R. H. Shoemaker, and M. R. Boyd, J. Natl. Cancer Inst. 1989, 81, 577-586, which is incorporated herein by reference.
(§1) HI-HeLa cells were infected with HRV-14 at a multiplicity of infection (m.o.i.) of 0.13 (virus particles/cell) or mock-infected with medium only. Infected or mock-infected cells were resuspended at 8×10^5 cells per mL and incubated with appropriate concentration of compounds of formulas I and II. Two days later, XTT/PMS was added to test plates and the amount of formazan produced was quantified spectrophotometrically at 450/650 nm. […] The therapeutic index (TI) was calculated by dividing the CC50 by the EC50.
(§2) All strains of human rhinovirus (HRV) for use in this assay were purchased from American Type Culture Collection (ATCC), except for HRV serotype-14, which was produced from the infectious cDNA clone, constructed and supplied to us by Dr. Roland Rueckert at the Institue for Molecular Virology, University of Wisconsin, Madison, Wisc. HRV stocks were propagated, and antiviral assays were perforemd in HI-HeLa cells (ATCC). Cells were grwon in Minimal Essential Medium, available from Life Technologies, with 10% fetal bovine serum.
The compounds were tested against control compounds WIN 51711, WIN 52084, and WIN 54954, all obtained from Sterling-Winthrop Pharmaceuticals, and control compound Pirodavir, obtained from Janssen Pharmaceuticals.

[1] = biological target: T1, Recombinant Rhinovirus 3C protease (RVP) serotype-14 (Human rhinovirus 14, UniProt P03303); assay: Inhibition of Rhinovirus Protease (fluorescence resonance energy transfer assay), serotype 14; format: biochemical, human rhinovirus (HRV); settings: for kobs/I: progress curves in enzyme start experiments; for INHIB (percent inhibition): 10 minute preincubation with 50 nM RVP
T1 construct: Recombinant Rhinovirus 3C proteases from serotypes 14, 16, 2 or 89; made in house
Procedure: Stock solution (50 mM, in DMSO) of various compounds were prepared; dilutions were in the same solvent. […] Assays contained 2% DMSO, 50 mM tris pH 7.6, 1 mM EDTA, a compound at the indicated concentrations, approximately 1 μM substrate, and 50-100 nM protease. […] The kobs/I values were obtained from reactions initiated by addition of enzyme rather than substrate. RVP activity is measured in the fluorescence resonance energy transfer assay. […] In the uncleaved peptide, the EDANS fluorescence was quenched by the proximal DABCYL moeity. When the peptide was cleaved, the quenching was relieved, and activity was measured as an increase in fluorescence signal.
In the above table, all data is RVP serotype-14 unless otherwise noted in parentheses. All strains of human rhinovirus (HRV) were purchased from American Type Culture Collection (ATCC), except for serotype 14, which was produced from the infectious cDNA clone constructed and supplied to us by Dr. Roland Rueckert at the Institute for Molecular Virology, University of Wisconsin, Madison, Wisc. […] The data in the column designated kobs/I was measured from progress curves in enzyme start experiments.

HI-HeLa cells = assay: Cytotoxicity in mock-infected HI-HeLa cells (antirhinoviral assay, XTT); format: cell-based
Procedure: as §1, §2

[2] = mock-infected HI-HeLa cells, two days, XTT, read-out: CC50
[3] = RVP serotype-14, 10 μM compound
[4] = RVP serotype-14, 10 minute preincubation, substrate start, read-out: INHIB (Ki)

T1 sequence (P03303 1538-1719): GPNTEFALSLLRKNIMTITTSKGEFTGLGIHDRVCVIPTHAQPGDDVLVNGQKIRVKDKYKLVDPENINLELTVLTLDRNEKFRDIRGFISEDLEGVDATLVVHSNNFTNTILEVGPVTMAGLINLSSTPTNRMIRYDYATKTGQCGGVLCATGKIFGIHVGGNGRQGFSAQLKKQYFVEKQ

| Compound | EC50 (HRV-14) | kobs/I ([1]; RVP serotype-14) | CC50 (HI-HeLa cells) | also measured |
| --- | --- | --- | --- | --- |
| CCOC(=O)/C=C/[C@H](CCC(N)=O)NC(=O)[C@H](Cc1ccccc1)NC(=O)[C@H](CC(C)C)NC(=O)OC [Compound 110] | 1.3 µM | 9,072 M-1 sec-1 | > 320 µM | – |
| Cc1cc(CCCCCCCOc2ccc(C3=NCCO3)cc2)on1 [WIN 51711, reference compound] | 0.78 µM | – | – | CC50 (HI-HeLa cells; [2]): > 60 µM |
| CCOC(=O)/C=C/[C@H](CCC(N)=O)NC(=O)[C@H](Cc1ccc(OCC)cc1)NC(=O)[C@H](CC(C)C)NC(=O)OCc1ccccc1 [Compound 136] | > 320 µM | 4,210 M-1 sec-1 | > 320 µM | – |
| CCOC(=O)/C=C/[C@H](CCC(N)=O)NC(=O)[C@H](CC(C)C)NC(=O)[C@H](CC(C)C)NC(=O)OCc1ccccc1 [Compound 141] | 5.4 µM | 2,309 M-1 sec-1 | > 320 µM | – |
| CCOC(=O)/C=C/[C@H](CCC(N)=O)NC(=O)[C@H](C)NC(=O)[C@H](CC(C)C)NC(=O)OCc1ccccc1 [Compound 109] | 20 µM | 1,348 M-1 sec-1 | > 320 µM | – |
| CCOC(=O)/C=C/[C@H](CCC(N)=O)NC(=O)[C@H](Cc1ccc(OP(=O)(O)O)cc1)NC(=O)[C@H](CC(C)C)NC(=O)OCc1ccccc1 [Compound 105] | 14 µM | 1,200 M-1 sec-1 | – | CC50 (HI-HeLa cells; [2]): > 320 µM |
| CCOC(=O)/C=C/[C@H](CCC(N)=O)NC(=O)[C@H](Cc1ccccc1)NS(=O)(=O)c1ccccc1 [Compound 34, Ethyl-3-[N-(Phenylsulfonyl)-L-Phe-L-Gln]-E-Propenoate] | 100 µM | 34 M⁻¹ s⁻¹ | – | INHIB (percent inhibition) [1, 3]: 10(10) percent; CC50 (HI-HeLa cells; [2]): > 100 µM |
| CCOC(=O)/C=C/[C@H](CCC(N)=O)NC(=O)[C@H](Cc1ccc(COC)cc1)NC(=O)[C@H](CC(C)C)NC(=O)OCc1ccccc1 [Compound 140] | 39 µM | 7,122 M-1 sec-1 | > 320 µM | – |
| CCOC(=O)/C=C/[C@H](CCC(N)=O)NC(=O)[C@H](Cc1ccc(O)cc1)NC(=O)[C@H](CC(C)C)NC(=O)OCc1ccccc1 [Compound 53] | 5.3 µM | 11,320 M-1 sec-1 | > 320 µM | – |
| CCOC(=O)/C=C/[C@H](CCC(N)=O)NC(=O)[C@H](Cc1ccc(F)cc1)NC(=O)[C@@H](NC(=O)SC1CCCC1)C(C)(C)C [Compound 176, Ethyl-3-[Cyclopentylthiocarbonyl-L-α-(t-Butyl-Gly)-L-(4-F-Phe)-L-Gln]-E-Propenoate] | 0.14 µM | 240,000 M-1 sec-1 | > 100 µM | Ki [1, 4]: 0.48 µM |
| CC(C)C[C@H](NC(=O)OCc1ccccc1)C(=O)N[C@@H](Cc1ccccc1)C(=O)N[C@H](/C=C/S(=O)(=O)c1ccccc1)CCC(N)=O [Compound 10, Phenyl-[2-(CBZ-L-Leu-L-Phe-L-Gln)-E-Vinyl]Sulfone] | 200 µM | 270 M⁻¹ s⁻¹ | > 320 µM | INHIB (percent inhibition) ([1]; RVP serotype-14, 5 μM compound): 55(5) percent |
| CC(C)C[C@H](NC(=O)OCc1ccccc1)C(=O)N[C@@H](Cc1ccccc1)C(=O)N[C@H](/C=C/C(=O)Nc1ccccc1)CCC(N)=O [Compound 59] | > 320 µM | 200 M⁻¹ s⁻¹ | – | Ki [1, 4]: 2 µM; CC50 (HI-HeLa cells; [2]): > 320 µM |
| CSc1cccc2c1N(C(=O)/C=C/[C@H](CCC(N)=O)NC(=O)[C@H](Cc1ccccc1)NC(=O)[C@H](CC(C)C)NC(=O)OCc1ccccc1)CC2 [Compound 96] | 19.1 µM | 300 M⁻¹ s⁻¹ | – | CC50 (HI-HeLa cells; [2]): 100 µM |
| CCOC(=O)/C(C)=C/[C@H](CCC(N)=O)NC(=O)[C@H](Cc1ccccc1)NC(=O)[C@H](CC(C)C)NC(=O)OCc1ccccc1 [Compound 82] | 3 µM | 7,300 M-1 sec-1 | > 320 µM | Ki [1, 4]: 26 µM |
| CC(C)C[C@H](NC(=O)OCc1ccccc1)C(=O)N[C@@H](Cc1ccccc1)C(=O)N[C@H](/C=C/C(=O)N(C)c1ccccc1)CCC(N)=O [Compound 60] | 158 µM | 575 M⁻¹ s⁻¹ | > 320 µM | Ki [1, 4]: 5 µM |
| CCOC(=O)/C=C/[C@H](CCC(N)=O)NC(=O)[C@H](Cc1ccc(C)cc1)NC(=O)[C@@H](NC(=O)SC1CCCC1)C(C)(C)C [Compound 174, Ethyl-3-[Cyclopentylthiocarbonyl-L-α-(t-Butyl-Gly)-L-(4-Me-Phe)-L-Gln]-E-Propenoate] | 0.056 µM | – | – | CC50 (HI-HeLa cells; [2]): > 100 µM |
| CC(=O)N1CC/C(=C\[C@H](CCC(N)=O)NC(=O)[C@H](Cc2ccc(F)cc2)NC(=O)[C@@H](NC(=O)SC2CCCC2)C(C)(C)C)C1=O [Compound 189] | – | 386,000 M-1 sec-1 | – | – |
| CCOC(=O)/C(F)=C\[C@H](CCC#N)NC(=O)[C@H](Cc1ccccc1)NC(=O)[C@H](CC(C)C)NC(=O)OCc1ccccc1 [Compound 1, Ethyl-2-Fluoro-3-[CBZ-L-Leu-L-Phe-L-(Cyanomethyl)-Ala]-E-Propenoate] | – | – | – | INHIB (percent inhibition) ([1]; RVP serotype-14): 77 (50) percent |
| C/C(=C\[C@H](CCC(N)=O)NC(=O)[C@H](Cc1ccccc1)NC(=O)[C@H](CC(C)C)NC(=O)OCc1ccccc1)C(=O)O [Compound 144] | 104 µM | – | > 320 µM | – |
| CCOP(=O)(/C=C/[C@H](CCC(N)=O)NC(=O)[C@H](Cc1ccccc1)NC(=O)[C@H](CC(C)C)NC(=O)OCc1ccccc1)OCC [Compound 20, Diethyl-[2-(CBZ-L-Leu-L-Phe-L-Gln)-E-Vinyl] Phosphonate] | > 320 µM | – | – | CC50 (HI-HeLa cells; [2]): > 320 µM |
| COCCOC(=O)/C=C/[C@H](CCC(N)=O)NC(=O)[C@H](Cc1ccc(C)cc1)NC(=O)[C@@H](NC(=O)SC1CCCC1)C(C)(C)C [Compound 188] | – | – | – | Ki [1]: 0.16 µM; kinact/KI ([1]; pH 7.6, read-out: kobs/I): 580000 M⁻¹ s⁻¹ |
| CC(C)C[C@H](NC(=O)OCc1ccccc1)C(=O)N[C@@H](Cc1ccccc1)C(=O)NC(/C=C/C#N)CCC(N)=O (mixture of isomers) [Compound 14, 3-(CBZ-L-Leu-L-Phe-DL-Gln)-E-Propenonitrile] | 17.8 µM | – | 500 µM | – |
| CCOC(=O)/C=C/[C@H](CCC(N)=O)NC(=O)[C@H](Cc1ccccc1)NS(=O)(=O)CC [Compound 33, Ethyl-3-[N-(Ethylsulfonyl)-L-Phe-L-Gln]-E-Propenoate] | – | 33 M⁻¹ s⁻¹ | > 100 µM | INHIB (percent inhibition) [1, 3]: 24(10) percent |
| Cc1cc(CCCCCCCOc2ccc(C3=N[C@@H](C)CO3)cc2)on1 [WIN 52084, reference compound] | 0.07 µM | – | – | CC50 (HI-HeLa cells; [2]): > 10 µM |
| CC(C)C[C@H](NC(=O)OCc1ccccc1)C(=O)N[C@@H](Cc1ccccc1)C(=O)N[C@H](/C=C/CSc1ccccn1)CCC(N)=O [Compound 75] | 5 µM | – | > 100 µM | – |
| CCOC(=O)/C=C/[C@H](CCC(N)=O)NC(=O)[C@H](Cc1ccc(C)cc1)NC(=O)[C@@H](NC(=O)OC1CCCC1)C(C)(C)C [Compound 190] | – | 29,230 M-1 sec-1 | – | – |
| Cc1ccc(CC(NC(=O)C(NC(=O)SC2CCCC2)C(C)(C)C)C(=O)NC(C=CC(=O)OCc2ccccc2)CCC(N)=O)cc1 (centres unmarked) [Compound 186] | – | 950,000 M-1 sec-1 | – | – |
